Source: ChEMBL document CHEMBL4184318, “Identification of Fast-Acting 2,6-Disubstituted Imidazopyridines That Are Efficacious in the in Vivo Humanized Plasmodium falciparum NODscidIL2Rγ null Mouse Model of Malaria” (J Med Chem, 2018)
Converted amounts (≈) assume the structure as drawn.

What was measured:
Mus musculus [1] = experiment: Dose normalized AUC (0 to 23 hrs) in NOD-scid IL-2Rgamma-null mouse model engrafted with Plasmodium falciparum 3D7 infected human erythrocytes at 25 mg/kg via oral gavage by LC-MS/MS method; assay type: ADME, organism-based; settings: in vivo
[2] = Kinetic solubility of the compound in HCl at pH 2 after 20 hrs by shake flask method; assay type: physicochemical; settings: read-out: Kinetic_solubility
[3] = Kinetic solubility of the compound in phosphate buffered saline at pH 6.5 after 20 hrs by shake flask method; assay type: physicochemical; settings: read-out: Kinetic_solubility
[4] = Kinetic solubility of the compound in FaSSIF at pH 6.5 after 20 hrs by shake flask method; assay type: physicochemical; settings: read-out: Kinetic_solubility
[5] = Drug metabolism in iv or po dosed BALB/c mouse plasma assessed as metabolism at cyclohexane ring by LC-MS/MS method; assay type: ADME, organism-based; settings: in vivo
[6] = Volume of distribution in Sprague-Dawley rat at 3 mg/kg, iv administered as 2 mins of infusion by LC-MS/MS method; assay type: ADME, organism-based; settings: in vivo
[7] = Volume of distribution in BALB/c mouse at 5 mg/kg, iv administered as 2 mins of infusion by LC-MS/MS method; assay type: ADME, organism-based; settings: in vivo
[8] = Cmax in Sprague-Dawley rat at 15 mg/kg administered via oral gavage as bolus dose by LC-MS/MS method; assay type: ADME, organism-based; parameters: dose 15 mg/kg, route oral; settings: in vivo
[9] = Cmax in Sprague-Dawley rat at 3 mg/kg, iv administered as 2 mins of infusion by LC-MS/MS method; assay type: ADME, organism-based; parameters: dose 3 mg/kg, route intravenous; settings: in vivo
[10] = Cmax in BALB/c mouse at 20 mg/kg administered via oral gavage as bolus dose by LC-MS/MS method; assay type: ADME, organism-based; parameters: dose 20 mg/kg, route oral; settings: in vivo
[11] = Cmax in BALB/c mouse at 5 mg/kg, iv administered as 2 mins of infusion by LC-MS/MS method; assay type: ADME, organism-based; parameters: dose 5 mg/kg, route intravenous; settings: in vivo
[12] = Tmax in Sprague-Dawley rat at 15 mg/kg administered via oral gavage as bolus dose by LC-MS/MS method; assay type: ADME, organism-based; settings: in vivo
[13] = Tmax in BALB/c mouse at 20 mg/kg administered via oral gavage as bolus dose by LC-MS/MS method; assay type: ADME, organism-based; settings: in vivo
Rattus norvegicus [14] = experiment: Dose normalized AUC (0 to infinity) in Sprague-Dawley rat at 15 mg/kg administered via oral gavage as bolus dose by LC-MS/MS method; assay type: ADME, organism-based; settings: in vivo
Rattus norvegicus [15] = experiment: Dose normalized AUC (0 to infinity) in Sprague-Dawley rat at 3 mg/kg, iv administered as 2 mins of infusion by LC-MS/MS method; assay type: ADME, organism-based; settings: in vivo
Mus musculus [16] = experiment: Dose normalized AUC (0 to infinity) in BALB/c mouse at 20 mg/kg administered via oral gavage as bolus dose by LC-MS/MS method; assay type: ADME, organism-based; settings: in vivo
Mus musculus [17] = experiment: Dose normalized AUC (0 to infinity) in BALB/c mouse at 5 mg/kg, iv administered as 2 mins of infusion by LC-MS/MS method; assay type: ADME, organism-based; settings: in vivo
[18] = Oral bioavailability in Sprague-Dawley rat at 15 mg/kg administered via gavage as bolus dose by LC-MS/MS method; assay type: ADME, organism-based; settings: in vivo
[19] = Oral bioavailability in BALB/c mouse at 20 mg/kg administered via gavage as bolus dose by LC-MS/MS method; assay type: ADME, organism-based; settings: in vivo
[20] = Cmax in NOD-scid IL-2Rgamma-null mouse model engrafted with Plasmodium falciparum 3D7 infected human erythrocytes at 5 mg/kg administered via oral gavage measured over 23 hrs post first dose by LC-MS/MS method; assay type: ADME, organism-based; parameters: dose 5 mg/kg, route oral; settings: in vivo
[21] = Cmax in NOD-scid IL-2Rgamma-null mouse model engrafted with Plasmodium falciparum 3D7 infected human erythrocytes at 10 mg/kg administered via oral gavage measured over 23 hrs post first dose by LC-MS/MS method; assay type: ADME, organism-based; parameters: dose 10 mg/kg, route oral; settings: in vivo
[22] = Cmax in NOD-scid IL-2Rgamma-null mouse model engrafted with Plasmodium falciparum 3D7 infected human erythrocytes at 25 mg/kg administered via oral gavage measured over 23 hrs post first dose by LC-MS/MS method; assay type: ADME, organism-based; parameters: dose 25 mg/kg, route oral; settings: in vivo
[23] = Cmax in NOD-scid IL-2Rgamma-null mouse model engrafted with Plasmodium falciparum 3D7 infected human erythrocytes at 50 mg/kg administered via oral gavage measured over 23 hrs post first dose by LC-MS/MS method; assay type: ADME, organism-based; parameters: dose 50 mg/kg, route oral; settings: in vivo
Mus musculus [24] = experiment: Dose normalized Cmax in NOD-scid IL-2Rgamma-null mouse model engrafted with Plasmodium falciparum 3D7 infected human erythrocytes at 5 mg/kg administered via oral gavage measured over 23 hrs post first dose by LC-MS/MS method; assay type: ADME, organism-based; settings: in vivo
Mus musculus [25] = experiment: Dose normalized Cmax in NOD-scid IL-2Rgamma-null mouse model engrafted with Plasmodium falciparum 3D7 infected human erythrocytes at 10 mg/kg administered via oral gavage measured over 23 hrs post first dose by LC-MS/MS method; assay type: ADME, organism-based; settings: in vivo
Mus musculus [26] = experiment: Dose normalized Cmax in NOD-scid IL-2Rgamma-null mouse model engrafted with Plasmodium falciparum 3D7 infected human erythrocytes at 25 mg/kg administered via oral gavage measured over 23 hrs post first dose by LC-MS/MS method; assay type: ADME, organism-based; settings: in vivo
Mus musculus [27] = experiment: Dose normalized Cmax in NOD-scid IL-2Rgamma-null mouse model engrafted with Plasmodium falciparum 3D7 infected human erythrocytes at 50 mg/kg administered via oral gavage measured over 23 hrs post first dose by LC-MS/MS method; assay type: ADME, organism-based; settings: in vivo
[28] = Tmax in NOD-scid IL-2Rgamma-null mouse model engrafted with Plasmodium falciparum 3D7 infected human erythrocytes at 5 mg/kg administered via oral gavage measured over 23 hrs post first dose by LC-MS/MS method; assay type: ADME, organism-based; settings: in vivo
[29] = Tmax in NOD-scid IL-2Rgamma-null mouse model engrafted with Plasmodium falciparum 3D7 infected human erythrocytes at 10 mg/kg administered via oral gavage measured over 23 hrs post first dose by LC-MS/MS method; assay type: ADME, organism-based; settings: in vivo
[30] = Tmax in NOD-scid IL-2Rgamma-null mouse model engrafted with Plasmodium falciparum 3D7 infected human erythrocytes at 25 mg/kg administered via oral gavage measured over 23 hrs post first dose by LC-MS/MS method; assay type: ADME, organism-based; settings: in vivo
[31] = Tmax in NOD-scid IL-2Rgamma-null mouse model engrafted with Plasmodium falciparum 3D7 infected human erythrocytes at 50 mg/kg administered via oral gavage measured over 23 hrs post first dose by LC-MS/MS method; assay type: ADME, organism-based; settings: in vivo
[32] = AUC (0 to 23 hrs) in NOD-scid IL-2Rgamma-null mouse model engrafted with Plasmodium falciparum 3D7 infected human erythrocytes at 5 mg/kg administered via oral gavage by LC-MS/MS method; assay type: ADME, organism-based; parameters: dose 5 mg/kg, time < 23 hr, route oral; settings: in vivo
[33] = AUC (0 to 23 hrs) in NOD-scid IL-2Rgamma-null mouse model engrafted with Plasmodium falciparum 3D7 infected human erythrocytes at 10 mg/kg administered via oral gavage by LC-MS/MS method; assay type: ADME, organism-based; parameters: dose 10 mg/kg, time < 23 hr, route oral; settings: in vivo
[34] = AUC (0 to 23 hrs) in NOD-scid IL-2Rgamma-null mouse model engrafted with Plasmodium falciparum 3D7 infected human erythrocytes at 25 mg/kg administered via oral gavage by LC-MS/MS method; assay type: ADME, organism-based; parameters: time < 23 hr, dose 25 mg/kg, route oral; settings: in vivo
[35] = AUC (0 to 23 hrs) in NOD-scid IL-2Rgamma-null mouse model engrafted with Plasmodium falciparum 3D7 infected human erythrocytes at 50 mg/kg administered via oral gavage by LC-MS/MS method; assay type: ADME, organism-based; parameters: dose 50 mg/kg, time < 23 hr, route oral; settings: in vivo
Mus musculus [36] = experiment: Dose normalized AUC (0 to 23 hrs) in NOD-scid IL-2Rgamma-null mouse model engrafted with Plasmodium falciparum 3D7 infected human erythrocytes at 5 mg/kg administered via oral gavage by LC-MS/MS method; assay type: ADME, organism-based; settings: in vivo
Mus musculus [37] = experiment: Dose normalized AUC (0 to 23 hrs) in NOD-scid IL-2Rgamma-null mouse model engrafted with Plasmodium falciparum 3D7 infected human erythrocytes at 10 mg/kg administered via oral gavage by LC-MS/MS method; assay type: ADME, organism-based; settings: in vivo
Mus musculus [38] = experiment: Dose normalized AUC (0 to 23 hrs) in NOD-scid IL-2Rgamma-null mouse model engrafted with Plasmodium falciparum 3D7 infected human erythrocytes at 50 mg/kg administered via oral gavage by LC-MS/MS method; assay type: ADME, organism-based; settings: in vivo

`FC1(F)CCC(c2nc3cnc(Nc4ccc(C(F)(F)F)cn4)cc3[nH]2)CC1` showed an AUC/dose (Mus musculus [1]) of 2.311 µg·h/mL/mg/kg, a solubility kinetic at 20 h [2] of 199 µM (≈ 79.1 µg/mL) and a solubility kinetic at 20 h [3] of 99 µM (≈ 39.3 µg/mL). The solubility kinetic at 20 h [4] was 93 µM (≈ 37 µg/mL), the Drug metabolism [5] was “Metabolite_Notdetected” and the Vd [6] was 3 L/kg. The Vd [7] was 1.5 L/kg, the Cmax [8] was 1200 nM and the Cmax [9] was 2600 nM. It also gave a Cmax [10] of 9.6 µM, a Cmax [11] of 5.1 µM and a Tmax [12] of 3 h. For the same compound, the Tmax [13] was 1 h, the AUC/dose (Rattus norvegicus [14]) was 342 µM·min and the AUC/dose (Rattus norvegicus [15]) was 286 µM·min. For the same compound, the AUC/dose (Mus musculus [16]) was 2178 µM·min, the AUC/dose (Mus musculus [17]) was 1078 µM·min and the bioavailability [18] was 24%. It also gave a bioavailability [19] of 51%, a Cmax [20] of 431 ng/mL and a Cmax [21] of 927 ng/mL. It also gave a Cmax [22] of 3340 ng/mL, a Cmax [23] of 8650 ng/mL and a Cmax/dose (Mus musculus [24]) of 0.086 µg/mL/mg/kg. The Cmax/dose (Mus musculus [25]) was 0.093 µg/mL/mg/kg, the Cmax/dose (Mus musculus [26]) was 0.167 µg/mL/mg/kg and the Cmax/dose (Mus musculus [27]) was 0.173 µg/mL/mg/kg. For the same compound, the Tmax [28] was 0.5 to 2 h, the Tmax [29] was 0.5 to 4 h and the Tmax [30] was 0.5 to 23 h. For the same compound, the Tmax [31] was 0.25 to 2 h, the AUC(0-t) at 23 h [32] was 4380 ng·h/mL and the AUC(0-t) at 23 h [33] was 8670 ng·h/mL. For the same compound, the AUC(0-t) at 23 h [34] was 46200 ng·h/mL, the AUC(0-t) at 23 h [35] was 88000 ng·h/mL and the AUC/dose (Mus musculus [36]) was 0.876 µg·h/mL/mg/kg. It also gave an AUC/dose (Mus musculus [37]) of 0.867 µg·h/mL/mg/kg and an AUC/dose (Mus musculus [38]) of 1.759 µg·h/mL/mg/kg.
